“Also recorded” adds a separate entry of the source.
How the values were obtained:
[1] = system: Mtb H37Rv attB::guaB2^Y487C; format: cell-based, Mycobacterium tuberculosis
Mtb GuaB2^Y487C = Mtb GuaB2^Y487C (Mycobacterium tuberculosis, UniProt P9WKI7, Y487C); format: biochemical
[2] = system: Mtb SRMV2.6 attB::guaB2^Y487C; format: cell-based, Mycobacterium tuberculosis

How did the MIC90 [1] turn out when `O=C(C1CCCCC1)N1CCN(S(=O)(=O)c2cccc3cnccc23)CC1` [VCC234718, N-(5-Isoquinolinylsulfonyl)-N’-cyclohexanoyl-piperazine] was run?
The MIC90 was >100 µM.

What about the “inhibition of Mtb GuaB2^Y487C” value (Mtb GuaB2^Y487C) of the same compound?
The value was “inactive; also recorded: refractory to inhibition”.

And the MIC90 [2]?
Its MIC90 is >200 µM.
